Experimental data published in US10905704B2, “Agents and methods using thereof for the prevention and treatment of stem cell muscle disorders” (ECOLE POLYTECHNIQUE FEDERALE DE LAUSANNE (EPFL), priority 2015, dated 2021).

What was measured:
C2C12 myoblasts = experiment: Respirometry on C2C12 myoblasts (OCR, ECAR); type: cell-based, mouse; conditions: C2C12 cells, NR vs PBS for 6 hours, FIG. 4J
Method: Cell culture and treatments were prepared according to description of Example 3. C2C12 mouse myoblasts were grown in DMEM (4.5 g/1 glucose, Gibco) supplemented with 10% FBS and penicillin/streptomycin (1×, Gibco). Cell transformation with Phb (Santa Cruz) and Phb2 shRNA (Santa Cruz) were performed using jetPEI DNA transfection kit (Polyplus), according to manufacturer's instructions. Cells were treated with 1 mM NR or PBS for 6 hours before cell harvesting or fixation. Respirometry on C2C12 myoblasts. Basal and uncoupled oxygen consumption rates (OCRs) and the extracellular acidification rate (ECAR) was measured using the Seahorse extracellular flux bioanalyzer (XF96, Seahorse Bioscience Inc.). To uncouple mitochondria, 5 uM of FCCP was injected after a basal respiration measurement. All measurements were performed in triplicates and results were normalized to total protein amount (C2C12 cells), assessed using a Bradford kit (Bio-Rad).

Endurance running test = type: in vivo, C57BL/6J mice; conditions: aged mice, NR diet
Method: Endurance running test. Mice were fasted 2 hours before running on a treadmill. The exercise regimen commenced at a speed of 9 cm/s with an inclination of 5 degrees. […] Mice were considered to be exhausted, and removed from the treadmill, following the accumulation of 5 or more shocks (0.1 mA) per minute for two consecutive minutes. The distance traveled and time before exhaustion is registered as maximal running distance and period.

MuSCs = experiment: Senescence marker staining of MuSCs from Mdx mice (β-galactosidase, γH2AX, cleaved caspase-3); type: cell-based; conditions: for senescence by β-galactosidase staining: FIG. 6J
Method: β-galactosidase assay. MuSCs were sorted directly and cultured primary MuSCs were grown on 8 chamber slides (Thermo Scientific). Senescence-associated β-galactosidase activity was detected using the senescence β-galactosidase staining kit (Cell signaling), according to manufacturer's instructions. Cardiotoxin-induced muscle damage and Histology as described in Example 2. The following antibodies were used: anti-eMHC (Developmental Studies Hybridoma Bank, DSHB, University of Iowa), anti-Pax7 (DSHB, University of Iowa), anti-γH2AX […] (Millipore) and anti-activated-caspase3 (Cell signaling).

[1] = MuSCs of NR-treated Mdx mice, cultured three generations, FIG. 6K

In the case of NC(=O)c1ccc[n+]([C@@H]2O[C@H](CO)[C@@H](O)[C@H]2O)c1 [NR, nicotinamide riboside], the “glycolysis (ECAR)” value (C2C12 myoblasts) is reported as “reductions in glycolysis”, the “oxidative respiration (OCR)” value (C2C12 myoblasts) is reported as “increases in oxidative respiration” and the maximal running distances (Endurance running test; FIG. 3E) is reported as “improvements”. The maximal running times (Endurance running test; FIG. 3F) was “improvements”, the “senescence by β-galactosidase staining” value (MuSCs; MuSCs from Mdx mice additionally treated with NR in vitro (6 hours)) was “further reduction in senescence” and the “senescence by β-galactosidase staining” value (MuSCs; MuSCs isolated from NR-treated Mdx mice) was “less prone to senescence”. For the same compound, the “cleaved caspase-3 immunostaining” value (MuSCs; [1]) was “attenuation” and the γH2AX immunostaining (MuSCs; [1]) was “attenuation”.
